Species on record: Rattus norvegicus
Assay: DrugMatrix - Regimen: Daily Repeat
Type: toxicity, organism-based, Sprague-Dawley
Parameters: regimen Daily Repeat, gender Male, age 6-8 weeks
Details: in vivo, po, route oral GAVAGE, vehicle 100 % WATER; for ABSOLUTE BASOPHIL / ABSOLUTE EOSINOPHIL / ABSOLUTE LYMPHOCYTE / ABSOLUTE MONOCYTE / ABSOLUTE SEGMENTED NEUTROPHIL / BASOPHIL / EOSINOPHIL / ERYTHROCYTE COUNT / HEMATOCRIT / HEMOGLOBIN / LEUKOCYTE COUNT / LYMPHOCYTE / MEAN CORPUSCULAR HEMOGLOBIN / MEAN CORPUSCULAR HEMOGLOBIN CONCENTRATION / MEAN CORPUSCULAR VOLUME / MONOCYTE / NEUTROPHIL / NUCLEATED RED BLOOD CELLS / PLATELET COUNT: tissue Blood; for ALANINE AMINOTRANSFERASE / ALBUMIN / ALKALINE PHOSPHATASE / ASPARTATE AMINOTRANSFERASE / BLOOD UREA NITROGEN / CARBON DIOXIDE / CHLORIDE / CHOLESTEROL / CREATINE PHOSPHOKINASE / CREATININE / GLUCOSE / LACTATE DEHYDROGENASE / LIPASE / PHOSPHORUS / POTASSIUM / SODIUM / TOTAL BILIRUBIN / TOTAL PROTEIN / URIC ACID: tissue Plasma
[1] = 20 mg/kg, 120 h, dose level Low, time 5 day
[2] = 160 mg/kg, 72 h, dose level High, time 3 day
[3] = 160 mg/kg, 120 h, dose level High, time 5 day

SMILES: CN(C)CCC=C1c2ccccc2CCc2ccccc21 [AMITRIPTYLINE]
- ABSOLUTE BASOPHIL [1]: 0 CELLS/uL
- ABSOLUTE EOSINOPHIL [1]: 0 CELLS/uL
- ABSOLUTE LYMPHOCYTE [1]: 11980.67 CELLS/uL
- ABSOLUTE MONOCYTE [1]: 40.67 CELLS/uL
- ABSOLUTE SEGMENTED NEUTROPHIL [1]: 1045.33 CELLS/uL
- BASOPHIL [1]: 0%
- EOSINOPHIL [1]: 0%
- ERYTHROCYTE COUNT [1]: 5.76 x10E6/uL
- HEMATOCRIT [1]: 35.93%
- HEMOGLOBIN [1]: 14.33 G/DL
- LEUKOCYTE COUNT [1]: 13.07 x10E3/uL
- LYMPHOCYTE [1]: 91.33%
- MEAN CORPUSCULAR HEMOGLOBIN [1]: 24.93 pg
- MEAN CORPUSCULAR HEMOGLOBIN CONCENTRATION [1]: 39.9 G/DL
- MEAN CORPUSCULAR VOLUME [1]: 62.43 fL
- MONOCYTE [1]: 0.33%
- NEUTROPHIL [1]: 8.33%
- NUCLEATED RED BLOOD CELLS [1]: 0.33 /100WBC
- PLATELET COUNT [1]: 1316.67 x10E3/uL
- ALANINE AMINOTRANSFERASE [1]: 43.67 u/L
- ALBUMIN [1]: 4 G/DL
- ALKALINE PHOSPHATASE [1]: 394 u/L
- ASPARTATE AMINOTRANSFERASE [1]: 89.67 u/L
- BLOOD UREA NITROGEN [1]: 15.33 mg/dL
- CARBON DIOXIDE [1]: 30 mmol/L
- CHLORIDE [1]: 100.33 MEQ/L
- CHOLESTEROL [1]: 66.67 mg/dL
- CREATINE PHOSPHOKINASE [1]: 486 u/L
- CREATININE [1]: 0.18 mg/dL
- GLUCOSE [1]: 145.33 mg/dL
- LACTATE DEHYDROGENASE [1]: 605.67 u/L
- LIPASE [1]: 11 u/L
- PHOSPHORUS [1]: 12.43 mg/dL
- POTASSIUM [1]: 6.68 MEQ/L
- SODIUM [1]: 141.6 MEQ/L
- TOTAL BILIRUBIN [1]: 0.2 mg/dL
- TOTAL PROTEIN [1]: 5.97 G/DL
- URIC ACID [1]: 1.87 mg/dL
- ABSOLUTE BASOPHIL [2]: 0 CELLS/uL
- ABSOLUTE EOSINOPHIL [2]: 85.33 CELLS/uL
- ABSOLUTE LYMPHOCYTE [2]: 16571 CELLS/uL
- ABSOLUTE MONOCYTE [2]: 212.67 CELLS/uL
- ABSOLUTE SEGMENTED NEUTROPHIL [2]: 697.67 CELLS/uL
- BASOPHIL [2]: 0%
- EOSINOPHIL [2]: 0.67%
- ERYTHROCYTE COUNT [2]: 5.93 x10E6/uL
- HEMATOCRIT [2]: 38.63%
- HEMOGLOBIN [2]: 15.33 G/DL
- LEUKOCYTE COUNT [2]: 17.57 x10E3/uL
- LYMPHOCYTE [2]: 94%
- MEAN CORPUSCULAR HEMOGLOBIN [2]: 25.83 pg
- MEAN CORPUSCULAR HEMOGLOBIN CONCENTRATION [2]: 39.7 G/DL
- MEAN CORPUSCULAR VOLUME [2]: 65.13 fL
- MONOCYTE [2]: 1%
- NEUTROPHIL [2]: 4.33%
- NUCLEATED RED BLOOD CELLS [2]: 0 /100WBC
- PLATELET COUNT [2]: 1403.33 x10E3/uL
- ALANINE AMINOTRANSFERASE [2]: 60 u/L
- ALBUMIN [2]: 4.1 G/DL
- ALKALINE PHOSPHATASE [2]: 422 u/L
- ASPARTATE AMINOTRANSFERASE [2]: 80.33 u/L
- BLOOD UREA NITROGEN [2]: 14 mg/dL
- CARBON DIOXIDE [2]: 34 mmol/L
- CHLORIDE [2]: 102 MEQ/L
- CHOLESTEROL [2]: 83 mg/dL
- CREATINE PHOSPHOKINASE [2]: 464 u/L
- CREATININE [2]: 0.15 mg/dL
- GLUCOSE [2]: 151.67 mg/dL
- LACTATE DEHYDROGENASE [2]: 162.67 u/L
- LIPASE [2]: 10.33 u/L
- PHOSPHORUS [2]: 11.3 mg/dL
- POTASSIUM [2]: 5.61 MEQ/L
- SODIUM [2]: 145.53 MEQ/L
- TOTAL BILIRUBIN [2]: 0.13 mg/dL
- TOTAL PROTEIN [2]: 5.93 G/DL
- URIC ACID [2]: 1.57 mg/dL
- ABSOLUTE BASOPHIL [3]: 0 CELLS/uL
- ABSOLUTE EOSINOPHIL [3]: 42.33 CELLS/uL
- ABSOLUTE LYMPHOCYTE [3]: 10052.67 CELLS/uL
- ABSOLUTE MONOCYTE [3]: 70 CELLS/uL
- ABSOLUTE SEGMENTED NEUTROPHIL [3]: 435 CELLS/uL
- BASOPHIL [3]: 0%
- EOSINOPHIL [3]: 0.33%
- ERYTHROCYTE COUNT [3]: 5.82 x10E6/uL
- HEMATOCRIT [3]: 36.27%
- HEMOGLOBIN [3]: 14.2 G/DL
- LEUKOCYTE COUNT [3]: 10.6 x10E3/uL
- LYMPHOCYTE [3]: 94.67%
- MEAN CORPUSCULAR HEMOGLOBIN [3]: 24.37 pg
- MEAN CORPUSCULAR HEMOGLOBIN CONCENTRATION [3]: 39.17 G/DL
- MEAN CORPUSCULAR VOLUME [3]: 62.27 fL
- MONOCYTE [3]: 0.67%
- NEUTROPHIL [3]: 4.33%
- NUCLEATED RED BLOOD CELLS [3]: 0.33 /100WBC
- PLATELET COUNT [3]: 1249.67 x10E3/uL
- ALANINE AMINOTRANSFERASE [3]: 49.67 u/L
- ALBUMIN [3]: 4 G/DL
- ALKALINE PHOSPHATASE [3]: 363.67 u/L
- ASPARTATE AMINOTRANSFERASE [3]: 96.67 u/L
- BLOOD UREA NITROGEN [3]: 14.67 mg/dL
- CARBON DIOXIDE [3]: 30.33 mmol/L
- CHLORIDE [3]: 100.67 MEQ/L
- CHOLESTEROL [3]: 72.67 mg/dL
- CREATINE PHOSPHOKINASE [3]: 1225 u/L
- CREATININE [3]: 0.16 mg/dL
- GLUCOSE [3]: 188 mg/dL
- LACTATE DEHYDROGENASE [3]: 246.67 u/L
- LIPASE [3]: 10.33 u/L
- PHOSPHORUS [3]: 12.93 mg/dL
- POTASSIUM [3]: 5.4 MEQ/L
- SODIUM [3]: 143.4 MEQ/L
- TOTAL BILIRUBIN [3]: 0.17 mg/dL
- TOTAL PROTEIN [3]: 6.23 G/DL
- URIC ACID [3]: 1.83 mg/dL
